Test results from patent publication US5389621A, “Method of enhancing the anticoagulant effects of aspirin using salicylamide” (University of Medicine and Dentistry of New Jersey, priority 1994, dated 1995).
“Also recorded” adds a separate entry of the source.

What was measured:
Assay type in all cases: in vivo, male Sprague-Dawley rats
[1] = Plasma kinetics of total 14C after oral 14C-aspirin alone or with salicylamide
Procedure: (§1) Male adult Sprague-Dawley rats (300-325 gm) obtained from Charles River Breeding Laboratory, N. Wilmington, Mass. were quarantined for one week. All animals were identified by ear punching. Food and water were provided ad libitum. The animals were maintained on rodent lab chow diet in a controlled environment with 50% humidity and 12 hour light/dark cycle.
Two dose combinations were employed. The low dose was 10 and/or 3 mg/kg of ASA and/or SAM, respectively, while the high dose was double the low dose. These doses were approximately equal (w/w) to that in commercially available combinations, e.g., BC® formula, when administered to humans.
Rats were divided into 2 groups; the first group consisted of 30 rats which were assigned to 5 subgroups, 6 rats each, according to the following treatment scheme:
The second group consisted of 4 subgroups and were administered double the dose received by the first group (with the exception of subgroup III).
The rats were fasted overnight (~18 hr.) before administration of the treatments and were allowed water ad libitum. The drug(s) to be given were prepared fresh in the morning of the study, dissolved in 2.5 ml of deionized water and gavaged to rats.
The specific activity of ASA was 739 and 369 dpm/μg for the low and high dose treatments, respectively.
The samples were collected by heparinized plastic syringes and transferred to polyethylene test tubes. The samples, ~300 μl each, were rapidly centrifuged at 1800×g for 15 minutes at 4° C.
The terminal elimination rate constant (ke) was estimated by linear regression of the terminal β phase of the plasma concentration vs. time curves. The area under the curve (AUC.infin.) was calculated by using the trapezoidal method from zero to the last measured plasma concentration. The half-life of elimination (t1/2β) was obtained by the equation t1/2β =0.693/ke.
Total body clearance (ClT) was estimated by the equation ClT =Dose/AUC assuming a complete absorption of ASA and SAM (Iwamoto et al., 1982; Iwamoto et al., 1983). The apparent volume of distribution Vd was calculated from the formula, Vd =ClT /ke.

[2] = Tissue distribution of 14C radioactivity after 14C-aspirin
Procedure: as §1
(§2) Forty-eight rats were divided into two groups. The first group of rats was administered ASA, SAM or their combination in a dose approximately equal (w/w) to that in the commercially available combinations, e.g., BC® formula, when administered to humans, i.e., 10 and 3 mg/kg of ASA and SAM, respectively. The second group was administered double the dosage received by the first group.
Each group consisted of 24 rats and was further divided into 4 subgroups, 6 rats each, according to the following scheme:
The rats were fasted overnight. The drug(s) were prepared fresh, dissolved in 2.5 ml of deionized water and administered orally by gavage needle. The rats were allowed water ad libitum before and after the oral administration.
The different treatments were given according to the previous scheme and each rat received an amount of radioactivity equal to […] in the case of radioactive aspirin and 10 μCu in the case of radioactive salicylamide.
(§3) The rats were anesthetized by light diethyl ether inhalation. A blood sample of nearly 3 ml was collected by cardiac puncture 1.5 hours after oral administration. The blood was transferred to chilled polyethylene tubes containing 30 μl of 50% (w/w) potassium fluoride to prevent hydrolysis of ASA. A 300 μl aliquot was pipetted in a scintillation vial to study the distribution in whole blood. The rest of the collected blood was immediately centrifuged at 1800×g for 10 minutes at 4° C. and the plasma was decanted. 100 μl of the plasma were pipetted in a scintillation vial for measurement of the total radioactivity and the rest of the plasma was stored immediately at -70° C. for later study of the distribution of the metabolites.
300 μl of the pellet of red blood cells was pipetted in a scintillation vial to study the distribution in red blood cells. The rest of the red blood cells were washed twice by adding 2 ml of physiological saline and were resuspended after each addition.
After collecting the blood sample, the rats were sacrificed immediately by a diethyl ether overdose. The following tissues were collected: liver, lung, kidney, heart, spleen, perinephric fat, brain, upper small intestine, stomach, pancreas, bone (femur and tibia), testis, skin and skeletal muscle. A sample of bone marrow was also collected (approximately20 mg).
300 mg tissue samples were placed in scintillation vials and 300 μl of 70% perchloric acid and 600 μl of 30% hydrogen peroxide were added to each vial and also to the vials containing the washed red blood cells aliquots. The vials were incubated at 75° C. for 1 hour in a shaking water bath and were tightly capped to prevent any loss of radioactivity by evaporation.
The vials were left to cool to room temperature for 15 minutes before 10 ml Aquasol-2 scintillation fluid was added to each vial. The total radioactivity was counted in a Beckman model 7500 LS spectrophotometer.

[3] = Tightly protein-bound 14C radioactivity after 14C-aspirin
Procedure: as §2, §3
The plasma tightly protein-bound activity was measured by adding 100 μl of 10% trichloroacetic acid (TCA) to 100 μl of plasma in microcentrifuge tubes and vortexing the contents for 1 minute followed by centrifugation at 1800×g for 10 minutes. The supernatant was decanted and the tubes with the pellets in them were placed in scintillation vials each containing 15 ml of Aquasol-2 scintillation fluid. […] The radioactivity in the scintillation vials was counted in Beckman LS counter.

SMILES: NC(=O)c1ccccc1O [SAM, Salicylamide]
- Effect on AUC.infin. of 14C ([1]; after 14C-ASA): further increased, albeit not significantly
- Effect on total body clearance (ClT) of 14C ([1]; after 14C-ASA): tended to decrease the ClT after the high dose combination
- Duration of the SAM effect on plasma 14C ([1]; following coadministration with 14C-ASA): approximately 4 hours
- Increase of Cmax of total 14C by SAM ([1]; high dose 14C-ASA coadministration): ~25%
- Effect of SAM on 14C-ASA absorption half-life ([1]; rat, in vivo): no effect
- Effect of SAM coadministration on Cmax / plasma level of total 14C ([1]; with 14C-ASA): enhanced maximum plasma concentration (Cmax) of total ^14 C dose-dependently; also recorded: dose-dependently increases the plasma level of total ^14 C radioactivity
- Change of 14C distribution in plasma, skin, testis and brain ([2]; 14C-ASA 20 mg/kg with SAM 6 mg/kg vs 14C-ASA alone): significant increase
- Tissue with the highest 14C concentration ([2]; 1.5 hr, 14C-ASA alone or with SAM, low dose): plasma attained the highest concentration
- Change of 14C activity in stomach (gastric mucosa) ([2]; 1.5 hr, 14C-ASA/SAM 10/3 mg/kg vs 14C-ASA 10 mg/kg): lower concentration of ^14 C radioactivity
- Change of 14C radioactivity and 14C-SA in plasma, liver and lung ([2]; SAM with 14C-ASA): discernable and parallel increase
- Change of tightly protein-bound 14C, high dose ([3]; 14C-ASA with SAM 20/6 mg/kg): did not reach significant levels
- Change of tightly protein-bound 14C in kidney ([3]; low and high doses): not influenced
